Reference: US20230048678A1, “ICAN DERIVATIVES FOR ANTIFUNGAL USE” (DEBRECENI EGYETEM, priority 2019, published 2023)
Entries after “also recorded” stand apart in the source; their conditions may differ. Each block holds one compound with its values, some of them ahead of it.

Tests used:
[1] = system: C. albicans SC5314, C. krusei ATCC 6258 and C. parapsilosis ATCC 22019; assay: CLSI broth microdilution, MIC summarised over the three Candida test strains; assay type: cell-based; details: for MICTI: value or range over the three Candida strains of Table 1, total inhibition
Protocol: (§1) ICAN has 3 key moieties, namely the amino, naphthalene and isonitrile. To find out which ones of them are essential for the antifungal behavior and to design more efficient derivatives, comparative studies were carried out, where one of the moieties was exchanged or eliminated. All ICAN derivatives were tested against C. albicans SC5314, C. krusei ATCC 6258 and C. parapsilosis ATCC 22019. The antifungal agents were dissolved in 100% DMSO and diluted further in RPMI-1640 (with L-glutamine but without bicarbonate) and buffered to pH 7.0 with 0.165 M morpholinopropanesulfonic acid (MOPS). MICs were read visually after 48-h incubation at 35° C. using the partial (50%) inhibition (for ICAN derivatives) (PI) and total inhibition (for AMB and ICAN derivatives) (TI) criteria. MICs were determined at least twice.
(§2) The tested C. albicans, C. tropicalis, C. parapsilosis, C. glabrata and C. krusei ATCC strains and clinical isolates are listed in Table 2. MICs were determined according to the CLSI M27-A3 [22]. Antifungal agents were dissolved in 100% DMSO and diluted further in RPMI-1640 (with L-glutamine but without bicarbonate) (Sigma, Budapest, Hungary), and buffered to pH 7.0 with 0.165 M morpholinopropanesulfonic acid (MOPS; Sigma, Budapest, Hungary). The final concentration ranges used for AMB and ICAN derivatives were 0.125 to 4 μg/ml and 0.04 to 20 μg/ml, respectively. Yeast cell suspensions were prepared in RPMI 1640 medium and were adjusted to give a final inoculum concentration of 0.5×10^3 to 2.5×10^3 cells/ml. MICs were read visually after 48-h incubation at 35° C. using the partial (50%) inhibition (for ICAN derivatives) (PI) and total inhibition (for AMB and ICAN derivatives) (TI) criteria. MICs were determined at least twice. For amphotericin B isolates with MIC values of ≤2 mg/L were considered wild-types. [Pfaller M A, 2012]

[2] = system: C. albicans SC5314; assay: CLSI broth microdilution susceptibility (Table 1); assay type: cell-based; details: 48 h, 35° C.; for MICPI: partial (50%) inhibition; for MICTI: total inhibition
Protocol: as §1, §2

[3] = system: C. parapsilosis ATCC 22019; assay: CLSI broth microdilution susceptibility (Table 1); assay type: cell-based; details: 48 h, 35° C.; for MICPI: partial (50%) inhibition; for MICTI: total inhibition
Protocol: as §1, §2

[4] = system: C. krusei ATCC 6258; assay: CLSI broth microdilution susceptibility (Table 1); assay type: cell-based; details: 48 h, 35° C.; for MICPI: partial (50%) inhibition; for MICTI: total inhibition
Protocol: as §1, §2

[5] = system: human cell cultures; assay: MTT bio assay cytotoxicity; assay type: cell-based; details: MTT bio assay technique
[6] = system: C. albicans isolate 3666; assay: Murine model, kidney fungal burden; assay type: in vivo, BALB/c mice; details: immunosuppressed mice, 10^4 cfu/mouse iv
Protocol: During an independent in vivo experiment mice were infected intravenously with C. albicans isolate 3666. The infected mice were euthanized 2 or 6 days after infection (n=5 and 6 mice/time point, respectively), as disclosed herein, to determine the fungal burdens in the kidneys. Kidney burden was analyzed using a Kruskal-Wallis test with Dunn's posttest for multiple comparisons [Foldi R 2012, Kovacs R 2014]. Results of fungal burden experiments are shown on FIGS. 3b and c. […] It is well seen in […], that on day 6. the fungal burden increased by an order of magnitude (from −10^5 to −10^6) in the case of the untreated mice, while in the case of DIMICAN it remained the same as it was on day 2. The same is valid for AMB.
We used 10-12 week-old female BALB/c mice for all experiments. Mice were immunosuppressed using 150 mg/kg intraperitoneal (ip) cyclophosphamide dose (4 days prior to infection) and 100 mg/kg ip cyclophosphamide dose (1 day prior to infection; 2 and 5 days after infection) [Spellberg B, 2005]. All mice received ceftazidime (5 mg/day subcutaneously) from days 0 to 6 after infection. Mice were given food and water ad libitum and were monitored daily. The animals were maintained in accordance with the Guidelines for the Care and Use of Laboratory Animals, and the experiments were approved by the Animal Care Committee of the University of Debrecen, Debrecen, Hungary (permission no. 12/2014).
Mice were infected via the lateral tail vein with C. albicans 3666 bloodstream isolate. In the lethality (10 mice/group) and fungal tissue burden experiments (6 mice/group) the infectious doses were 3×10^4 and 10^4 cfu/mouse, respectively. These doses led to 100% and 0% mortality, respectively by day 6 after infection among untreated mice. Inoculum density was confirmed by plating serial dilutions onto Sabouraud dextrose agar (SDA) plates.
AMB (Fungizone, commercial preparation) and DIMICAN treatment in a 0.5-ml bolus was started 1 h after infection. The doses were 1 mg AMB and 5 mg DIMICAN (in olive oil/water (o/w) emulsion) per kg body weight. All antifungals were administered intraperitoneally once daily for 5 consecutive days.
Infected mice were euthanized 2 or 6 days after infection (n=6 mice/time point) to determine the fungal burden in the kidney. […] Aliquots of 0.1 ml of the undiluted and diluted homogenates were plated onto SDA, and the colony count was determined after 48 h. Colony-forming units (CFUs) were determined after 48 h of incubation at 37° C. and results were expressed as cfus/g tissue [Spellberg B, 2005]. […]
Survival effects were analyzed by the Kaplan—Meier log-rank test. Kidney burden was analysed using a Kruskal—Wallis test with Dunn's posttest for multiple comparisons [Foldi R 2012, Kovacs R 2014].

[7] = system: clinical Candida isolates (C. albicans, C. krusei, C. tropicalis, C. glabrata, C. parapsilosis); assay: Broth microdilution, MIC summarised over all clinical Candida isolates; assay type: cell-based; details: range or bound over all tested isolates of five Candida species; read-out: total minimum inhibitory concentration (MICTI)
Protocol: The present inventors have discovered that 1-amino-5-isocyanonaphthalene (ICAN) and its derivatives exert excellent antifungal activity against a broad range of Candida species. […] Nevertheless, proper formulation and/or substitution with solubility enhancer groups on the naphthalene core may increase its effectiveness. Based on MIC values (MICPI=0.04−0.3 μg/ml MICTI=0.6 μg/ml) and its low cytotoxicity 1,1-N-dimethylamino-5-isocyanonaphthalene (DIMICAN) was selected to be tested on clinical Candida isolates. […] Amphotericin B (AMB) is an antifungal agent which is effective against a number of medically important fungi. The in vivo applicability of DIMICAN was tested on immunosuppressed mice and control experiments were also conducted with amphotericin B. In the model of acute invasive candidiasis, neutropenic mice were infected intravenously with C. albicans isolate 3666 (3×10^4 cfu/mouse) to establish an acute infection, and all untreated control animals died within 6 days. […]
The tested C. albicans, C. tropicalis, C. parapsilosis, C. glabrata and C. krusei ATCC strains and clinical isolates are listed in Table 2. MICs were determined according to the CLSI M27-A3 [22]. […] MICs were read visually after 48-h incubation at 35° C. using the partial (50%) inhibition (for ICAN derivatives) (PI) and total inhibition (for AMB and ICAN derivatives) (TI) criteria. MICs were determined at least twice. […]

[8] = system: C. tropicalis isolates; assay: CLSI M27-A3 broth microdilution on Candida isolates (Table 2); assay type: cell-based
Protocol: as §2

[9] = system: C. parapsilosis isolates; assay: as above; assay type: cell-based
Protocol: as §2

[10] = system: C. glabrata isolates; assay: as above; assay type: cell-based
Protocol: as §2

[11] = system: C. krusei isolates; assay: as above; assay type: cell-based
Protocol: as §2

[12] = system: C. albicans isolates; assay: as above; assay type: cell-based
Protocol: as §2

SMILES: [C-]#[N+]c1cccc2c(N)cccc12 [ICAN, 1-amino-5-isocyanonaphthalene]
MICTI [1]: 0.6 to 5 µg/mL
LD50 [5]: 10 µg/mL
MICPI [2]: 1.25 µg/mL
MICTI [2]: 5 µg/mL
MICPI [3]: 0.3 µg/mL
MICTI [3]: 0.6 µg/mL
MICPI [4]: 0.6 µg/mL
MICTI [4]: 2.5 µg/mL

SMILES: Nc1cccc2c(N)cccc12 [DAN, 1,5-diaminonaphthalene, reference compound]
MICPI [2]: 50 µg/mL
MICTI [2]: 100 µg/mL
MICPI [3]: 50 µg/mL
MICTI [3]: 100 µg/mL
MICPI [4]: 50 µg/mL
MICTI [4]: 100 µg/mL

SMILES: [C-]#[N+]c1cccc2c([N+]#[C-])cccc12 [DIN, 1,5-diisocyanonaphthalene]
MICPI ([1]; value or range over the three Candida strains of Table 1, partial (50%) inhibition): 0.3 µg/mL
MICTI [1]: 0.6 µg/mL
MICPI [2]: 0.3 µg/mL
MICTI [2]: 0.6 µg/mL
MICPI [3]: 0.3 µg/mL
MICTI [3]: 0.6 µg/mL
MICPI [4]: 0.3 µg/mL
MICTI [4]: 0.6 µg/mL

SMILES: [C-]#[N+]c1ccc([N+]#[C-])cc1 [PDI, 1,4-phenylenediisocyanide, reference compound]
MICPI [2]: 50 µg/mL
MICTI [2]: 100 µg/mL
MICPI [3]: 50 µg/mL
MICTI [3]: 100 µg/mL
MICPI [4]: 50 µg/mL
MICTI [4]: 100 µg/mL

Continued, in another order:

MICTI [1]: 1.75-2. μg/ml
MICPI [2]: 0.6 µg/mL
MICTI [2]: 2.5 µg/mL
MICPI [3]: 0.6 µg/mL
MICTI [3]: 1.75 µg/mL
MICPI [4]: 0.15 µg/mL
MICTI [4]: 2.5 µg/mL
SMILES: [C-]#[N+]c1cccc2c(NCCC)cccc12 [PICAN, N-(prop-1-yl)-1-amino-5-isocyanonaphthalene]

MIC [7]: ≤ 2 µg/mL
MICTI ([8]; isolate 579): 0.5 µg/mL
MICTI ([8]; isolate 622): 1 µg/mL
MICTI ([8]; isolate 1776): 1 µg/mL
MICTI ([8]; isolate 2467): 0.5 µg/mL
MICTI ([8]; isolate 3014): 0.5 µg/mL
MICTI ([8]; isolate 5115): 0.5 µg/mL
MICTI ([8]; isolate 5806): 0.25 µg/mL
MICTI ([8]; isolate ATCC 750): 0.5 µg/mL
MICTI ([9]; isolate 4133): 0.25 µg/mL
MICTI ([9]; isolate 9613): 0.25 µg/mL
MICTI ([9]; isolate 10252): 0.5 µg/mL
MICTI ([9]; isolate 18154): 0.5 µg/mL
MICTI ([9]; isolate 27001): 0.25 µg/mL
MICTI ([9]; isolate ATCC 22019): 0.5 µg/mL
MICTI ([10]; isolate 14408): 0.5 µg/mL
MICTI ([10]; isolate 14559): 0.5 µg/mL
MICTI ([10]; isolate 22394): 0.5 µg/mL
MICTI ([10]; isolate 23429): 1 µg/mL
MICTI ([10]; isolate 23481): 1 µg/mL
MICTI ([10]; isolate 27643): 0.5 µg/mL
MICTI ([10]; isolate 28557): 0.5 µg/mL
MICTI ([10]; isolate ATCC 90030): 0.5 µg/mL
MICTI ([11]; isolate 749): 1 µg/mL
MICTI ([11]; isolate 1853): 1 µg/mL
MICTI ([11]; isolate 4364): 1 µg/mL
MICTI ([11]; isolate 5029): 1 µg/mL
MICTI ([11]; isolate 5072): 1 µg/mL
MICTI ([11]; isolate 25504): 0.5 µg/mL
MICTI ([11]; isolate 34987): 1 µg/mL
MICTI ([11]; isolate ATCC 6258): 1 µg/mL
MICTI ([12]; isolate 456): 0.5 µg/mL
MICTI ([12]; isolate 665): 1 µg/mL
MICTI ([12]; isolate 685): 0.25 µg/mL
MICTI ([12]; isolate 720): 0.5 µg/mL
MICTI ([12]; isolate 963): 0.5 µg/mL
MICTI ([12]; isolate 1544): 0.25 µg/mL
MICTI ([12]; isolate 3666): 0.5 µg/mL
MICTI ([12]; isolate 8658): 1 µg/mL
MICTI ([12]; isolate ATCC 10231): 0.25 µg/mL
SMILES: C[C@@H]1[C@H](O)[C@@H](C)/C=C/C=C/C=C/C=C/C=C/C=C/C=C/[C@H](O[C@@H]2O[C@H](C)[C@@H](O)[C@H](N)[C@@H]2O)C[C@@H]2O[C@](O)(C[C@@H](O)C[C@@H](O)[C@H](O)CC[C@@H](O)C[C@@H](O)CC(=O)O[C@H]1C)C[C@H](O)[C@H]2C(=O)O [AMB, Amphotericin B, reference compound]
effect on kidney fungal burden, six days after infection ([6]; 5 mg/kg DIMICAN or 1 mg/kg AMB ip once daily for 5 days, p<0.05 (AMB), p<0.001 (DIMICAN) vs control): efficient; also recorded: significantly lower fungal burden
effect on kidney fungal burden, two days after infection ([6]; 5 mg/kg DIMICAN or 1 mg/kg AMB ip once daily, P>0.05 vs control): no effect on fungal load

MICTI [1]: 1.25 to 2.5 µg/mL
MICPI [2]: 0.6 µg/mL
MICTI [2]: 2.5 µg/mL
MICPI [3]: 0.6 µg/mL
MICTI [3]: 1.25 µg/mL
MICPI [4]: 0.6 µg/mL
MICTI [4]: 1.25 µg/mL
SMILES: [C-]#[N+]c1cccc2c(NCC)cccc12 [EICAN, N-ethyl-1-amino-5-isocyanonaphthalene]
